Results: US10463644B2, “Uses of sesquiterpene lactone compounds and their derivatives in drugs preparation” (ACCENDATECH, priority 2013, dated 2019)
Like-named read-outs stand apart in the source and are kept apart here.

Columns and labels:
[1] = test system: TNF-α secreted by synoviocyte; assay: Content of TNF-α in culture supernatant of synoviocyte of RA model rats given test compound; type: in vivo; conditions: rat RA model, dose 30 mg/kg.2d; normal control 0.38 ± 0.027, NaCl 0.74 ± 0.098
Method in brief: (§1)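 Animals with induced RA are grouped and dosed with compound (30 mg/kg.2d) alongside NaCl and normal controls. Synoviocytes are prepared and cultured, and supernatants are harvested. TNF-α and PGE2 secretion are then quantified by one procedure, IL-1β by another.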

[2] = test system: IL-1β secreted by synoviocyte; assay: Content of IL-1β in culture supernatant of synoviocyte of RA model rats given test compound; type: in vivo; conditions: rat RA model, dose 30 mg/kg.2d; normal control 0.16 ± 0.034, NaCl 0.49 ± 0.136
Method in brief: as §1

[3] = test system: PGE2 secreted by synoviocyte; assay: Content of PGE2 in culture supernatant of synoviocyte of RA model rats given test compound; type: in vivo; conditions: rat RA model, dose 30 mg/kg.2d; normal control 8.34 ± 1.29, NaCl 32.44 ± 10.32
Method in brief: as §1

[4] = test system: cancer stem cells; assay: Survival rate of cancer stem cells after test compound is added (flow cytometry, Annexin V-FITC/PI, clinical specimen); type: cell-based, patient; conditions: Homo sapiens, 18 h
Method in brief: (§2)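 Patient tumour or leukaemia cells, identified by cancer-specific stem-cell markers (CD34+/CD38+ for AML), are treated with compound for 18 hours in serum-free IMDM. Apoptosis is then measured as Annexin V-FITC/PI staining by flow cytometry.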

[5] = test system: cancer cells; assay: Survival rate of cancer cells after test compound is added (flow cytometry, Annexin V-FITC/PI, clinical specimen); type: cell-based, patient; conditions: Homo sapiens, 18 h, read-out: Survival rate (%) All cells (Stem cells and ordinary cells)
Method in brief: as §2

[6] = Head and neck squamous cell carcinomas

Q: Which results are given for `CN(C)C[C@@H]1C(=O)O[C@H]2[C@H]1CCC1(CC1)[C@@H]1CCC3(CC3)[C@H]21` [Compound 27]?
A: Content of TNF-α in culture supernatant of synoviocyte (x ± s) [1]: 0.54 ± 0.066 ng/mL; Content of IL-1β in culture supernatant of synoviocyte (x ± s) [2]: 0.41 ± 0.047 ng/mL; Content of PGE2 in culture supernatant of synoviocyte (x ± s) [3]: 24.75 ± 2.66 ng/mL; viability at 10 µM ([4]; AML): 87%; viability at 20 µM ([4]; AML): 77%; viability at 10 µM ([4]; Brain glioma): 84%; viability at 20 µM ([4]; Brain glioma): 78%; viability at 10 µM ([4]; Brain tumor): 87%; viability at 20 µM ([4]; Brain tumor): 76%; viability at 10 µM ([4]; Breast cancer): 84%; viability at 20 µM ([4]; Breast cancer): 76%; viability at 10 µM ([4]; CLL): 87%; viability at 20 µM ([4]; CLL): 82%; viability at 10 µM ([4]; CML): 87%; viability at 20 µM ([4]; CML): 76%; viability at 10 µM ([4]; Children hepatoblastoma): 82%; viability at 20 µM ([4]; Children hepatoblastoma): 79%; viability at 10 µM ([4]; Colon adenocarcinoma): 82%; viability at 20 µM ([4]; Colon adenocarcinoma): 78%; viability at 10 µM ([4]; Colorectal cancer): 85%; viability at 20 µM ([4]; Colorectal cancer): 79%; viability at 10 µM ([4]; Gastric cancer): 81%; viability at 20 µM ([4]; Gastric cancer): 75%; viability at 10 µM ([4]; Gastrointestinal tumor): 86%; viability at 20 µM ([4]; Gastrointestinal tumor): 77%; viability at 10 µM ([4]; Glioma): 80%; viability at 20 µM ([4]; Glioma): 75%; viability at 10 µM [4, 6]: 81%; viability at 20 µM [4, 6]: 75%; viability at 10 µM ([4]; Laryngeal cancer): 85%; viability at 20 µM ([4]; Laryngeal cancer): 77%; viability at 10 µM ([4]; Liver cancer): 86%; viability at 20 µM ([4]; Liver cancer): 77%; viability at 10 µM ([4]; Lung adenocarcinoma): 82%; viability at 20 µM ([4]; Lung adenocarcinoma): 76%; viability at 10 µM ([4]; Lung cancer): 79%; viability at 20 µM ([4]; Lung cancer): 72%; viability at 10 µM ([4]; Malignant melanoma): 82%; viability at 20 µM ([4]; Malignant melanoma): 74%; viability at 10 µM ([4]; Nasopharynx cancer): 82%; viability at 20 µM ([4]; Nasopharynx cancer): 74%; viability at 10 µM ([4]; Ovarian cancer): 83%; viability at 20 µM ([4]; Ovarian cancer): 77%; viability at 10 µM ([4]; Pancreatic cancer): 86%; viability at 20 µM ([4]; Pancreatic cancer): 78%; viability at 10 µM ([4]; Prostate cancer): 84%; viability at 20 µM ([4]; Prostate cancer): 78%; viability at 10 µM ([4]; Retinoblastoma): 85%; viability at 20 µM ([4]; Retinoblastoma): 80%; viability at 10 µM ([4]; Skin cancer): 85%; viability at 20 µM ([4]; Skin cancer): 74%; viability at 10 µM ([5]; AML): 90%; viability at 20 µM ([5]; AML): 86%; viability at 10 µM ([5]; Brain glioma): 91%; viability at 20 µM ([5]; Brain glioma): 88%; viability at 10 µM ([5]; Brain tumor): 94%; viability at 20 µM ([5]; Brain tumor): 87%; viability at 10 µM ([5]; Breast cancer): 88%; viability at 20 µM ([5]; Breast cancer): 85%; viability at 10 µM ([5]; CLL): 93%; viability at 20 µM ([5]; CLL): 88%; viability at 10 µM ([5]; CML): 94%; viability at 20 µM ([5]; CML): 87%; viability at 10 µM ([5]; Children hepatoblastoma): 88%; viability at 20 µM ([5]; Children hepatoblastoma): 87%; viability at 10 µM ([5]; Colon adenocarcinoma): 89%; viability at 20 µM ([5]; Colon adenocarcinoma): 87%; viability at 10 µM ([5]; Colorectal cancer): 93%; viability at 20 µM ([5]; Colorectal cancer): 86%; viability at 10 µM ([5]; Gastric cancer): 87%; viability at 20 µM ([5]; Gastric cancer): 83%; viability at 10 µM ([5]; Gastrointestinal tumor): 90%; viability at 20 µM ([5]; Gastrointestinal tumor): 86%; viability at 10 µM ([5]; Glioma): 88%; viability at 20 µM ([5]; Glioma): 82%; viability at 10 µM [5, 6]: 87%; viability at 20 µM [5, 6]: 83%; viability at 10 µM ([5]; Laryngeal cancer): 92%; viability at 20 µM ([5]; Laryngeal cancer): 89%; viability at 10 µM ([5]; Liver cancer): 90%; viability at 20 µM ([5]; Liver cancer): 86%; viability at 10 µM ([5]; Lung adenocarcinoma): 89%; viability at 20 µM ([5]; Lung adenocarcinoma): 86%; viability at 10 µM ([5]; Lung cancer): 88%; viability at 20 µM ([5]; Lung cancer): 81%; viability at 10 µM ([5]; Malignant melanoma): 91%; viability at 20 µM ([5]; Malignant melanoma): 85%; viability at 10 µM ([5]; Nasopharynx cancer): 91%; viability at 20 µM ([5]; Nasopharynx cancer): 85%; viability at 10 µM ([5]; Ovarian cancer): 88%; viability at 20 µM ([5]; Ovarian cancer): 84%; viability at 10 µM ([5]; Pancreatic cancer): 93%; viability at 20 µM ([5]; Pancreatic cancer): 92%; viability at 10 µM ([5]; Prostate cancer): 91%; viability at 20 µM ([5]; Prostate cancer): 88%; viability at 10 µM ([5]; Retinoblastoma): 94%; viability at 20 µM ([5]; Retinoblastoma): 86%; viability at 10 µM ([5]; Skin cancer): 94%; viability at 20 µM ([5]; Skin cancer): 81%
